Reference: PubChem BioAssay AID857 (Vanderbilt High Throughput Screening Facility, 2007)
Active and inactive are the calls of the source.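 Rule for the calls: active = a full or partial dose-response curve in at least two of three replicate runs; inactive = the rest.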

Target: D(1B) dopamine receptor (Homo sapiens) (UniProt P21918)
Experiment: dopamine D5 receptor modulation at EC30 dopamine, dose response, selectivity assay for D1 allosteric modulator project, cell-based, HEK293, CRE-luciferase, luminescence (AID 857);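 note: HEK 293 cells expressing human D5 with a CRE-driven luciferase reporter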

D(1B) dopamine receptor (Homo sapiens), sequence (P21918 whole entry, looked up): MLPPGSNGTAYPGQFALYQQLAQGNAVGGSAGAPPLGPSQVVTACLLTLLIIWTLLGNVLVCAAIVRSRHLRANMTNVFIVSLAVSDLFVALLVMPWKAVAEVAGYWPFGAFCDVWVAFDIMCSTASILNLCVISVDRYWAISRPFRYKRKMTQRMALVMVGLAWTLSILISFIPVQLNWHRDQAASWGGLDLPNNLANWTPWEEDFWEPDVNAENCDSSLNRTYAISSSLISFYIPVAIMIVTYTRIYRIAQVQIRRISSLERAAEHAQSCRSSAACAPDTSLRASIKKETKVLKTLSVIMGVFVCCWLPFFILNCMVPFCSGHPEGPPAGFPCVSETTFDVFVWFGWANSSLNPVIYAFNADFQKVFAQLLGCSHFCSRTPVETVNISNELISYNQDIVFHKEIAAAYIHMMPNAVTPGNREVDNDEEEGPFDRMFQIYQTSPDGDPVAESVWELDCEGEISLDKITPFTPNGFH

Structure (SMILES)	outcome	EC50 [nM]
CC(=O)c1cc(C#N)c(SCC(=O)OC(C)(C)C)nc1C	inactive	–
N#Cc1cc2ccccc2nc1SCC(=O)Nc1ccc(S(=O)(=O)N2CCCC2)cc1	inactive	–
O=C(NCc1cccs1)C1CC(c2ccccc2O)=NO1 (stereo not drawn)	inactive	–
COC(=O)c1sc2ccccc2c1C(=O)OC	inactive	–
COc1ccc(S(=O)(=O)N(C)c2ccc(C(=O)N3CCOCC3)cc2)cc1OC	inactive	–
COc1ccc2cc3c(N)nn(C(=O)Cc4ccccc4OC)c3nc2c1	–	635
CCOc1cc(C2C(C#N)=C(N)Oc3n[nH]c(-c4ccccc4)c32)ccc1O (stereo not drawn)	inactive	–
C=CCn1c(SCC(=O)Nc2sc(C)c(C)c2C(=O)OCC)nnc1-c1sc(N)nc1C	inactive	–
N#Cc1nc(-c2ccccc2Cl)oc1N1CCOCC1	inactive	–
O=C1OCCC1Sc1ncnc2sc3c(c12)CCC3 (stereo not drawn)	inactive	–
CCCCn1c(=NC(=O)c2ccco2)c(C(=O)OCC)cc2c(=O)n3ccccc3nc21	inactive	–
Clc1ccc(-n2nnnc2-c2ccccc2)cc1	inactive	–
COc1ccc(Cl)cc1C(=O)CSc1nnnn1C1CCCC1	–	661
Cc1ccc(-n2cnnn2)c2cccnc12	inactive	–
c1csc(-c2nn3c(Cn4nnc5ccccc54)nnc3s2)c1	inactive	–
Nc1nc(SCc2ccc3c(c2)OCCO3)n[nH]1	inactive	–
Cn1cccc1C1NC(=O)c2c(sc3c2CCC(C(C)(C)C)C3)N1 (stereo not drawn)	inactive	–
O=c1[nH]c2cc3c(cc2cc1C(c1nnnn1C1CCCC1)N1CCSCC1)OCCO3 (stereo not drawn)	inactive	–
Cc1cccc(Cc2c(C)nc3c(C(=O)NCc4ccco4)cnn3c2C)c1	inactive	–
N#CC1=C(N)N(c2ccccc2)C2=C(C(=O)CCC2)C1c1cccs1 (stereo not drawn)	inactive	–
CCOC(=O)CN(C(=O)CSc1nnc(-c2ccc(OC)c(OC)c2)o1)c1ccc(F)cc1	inactive	–
Cc1noc(C)c1S(=O)(=O)N1CCCC(C(=O)NCc2ccccn2)C1 (stereo not drawn)	inactive	–
CC(C)Cc1nc(N2CCN(C(=O)C(C)C)CC2)c(C#N)c2c1CCC2	inactive	–
Cc1ccc(C2C(C#N)=C(N)Oc3n[nH]c(-c4cccs4)c32)s1 (stereo not drawn)	inactive	–
CCC(=O)NC(=Nc1nc2ccccc2s1)NC(=O)CC	–	1900
CCOC(=O)c1oc2ccc(S(=O)(=O)N3CCOCC3)cc2c1C	inactive	–

Structure (SMILES)	outcome	EC50 [nM]
c1ccc(C2CC(c3ccccc3)n3ncnc3N2)cc1 (stereo not drawn)	inactive	–
COc1c(S(=O)(=O)n2nc(C)cc2C)ccc(Cl)c1Cl	inactive	–
Cc1sc2ncnc(SCC(=O)N3CCCC3)c2c1C	inactive	–
O=C(C1CCC1)N1CCc2cc(S(=O)(=O)NCc3cccnc3)ccc21	inactive	–
Cc1cccc(-c2c3c(=O)n(C)c(=O)n(C)c3cn2-c2ccccc2O)c1	inactive	–
N#Cc1nc(N)nc(N(c2ccccc2)c2ccccc2)n1	inactive	–
O=C1C(Cl)=C(NCC2CCCO2)C(=O)N1C1CCCCC1 (stereo not drawn)	inactive	–
Cc1ccccc1NC(=O)c1nc[nH]c1C(=O)NCc1ccccc1	inactive	–
Cc1[nH]nc2c1C(c1ccc(F)cc1)C1=C(CC(C)(C)CC1=O)N2 (stereo not drawn)	inactive	–
CC(=O)Nc1nc2n(n1)C(c1ccccc1)C=C(c1ccccc1)N2 (stereo not drawn)	inactive	–
Clc1cccc(Nc2c3c(nc4ncnn24)CCC3)c1	inactive	–
CCOC(=O)c1c(NC(=O)CSc2nnc(CN3CCOCC3)n2C)sc2c1CCCC2	inactive	–
CCn1c(SCc2cccnc2)nc2c1c(=O)n(C)c(=O)n2C	inactive	–
N#CC1=C(N)N(c2ccccc2)C2=C(C(=O)CCC2)C1c1ccsc1 (stereo not drawn)	inactive	–
COc1ccc(Cn2nnc3c(=O)[nH]c(C4CCCN(C(=O)c5ccccc5)C4)nc32)cc1 (stereo not drawn)	inactive	–
N#Cc1ccc(-c2ccco2)nc1SCc1ccccc1	inactive	–
O=C(c1cccn2c(=O)c3cc(Cl)ccc3nc12)N1CCN(Cc2ccc3c(c2)OCO3)CC1	inactive	–
C/C(CCc1oc2ccccc2c1-c1ccc(C)o1)=N/O	inactive	–
Cc1[nH]n(-c2ccccc2)c(=O)c1S(=O)(=O)c1ccccc1	inactive	–
CCOC(=O)c1cc2c(=O)n3ccccc3nc2n(CCCOC)c1=NC(=O)C(C)(C)C	inactive	–
CCOC(=O)c1ccc(N2CN=C3SCC(=O)N3C2)cc1	inactive	–
NC1=NC(c2cn(-c3ccccc3)nc2-c2cccs2)n2c(nc3ccccc32)N1 (stereo not drawn)	inactive	–
Nc1nc(SCC(=O)OCc2ccccc2)[nH]c(=O)c1NC(=O)c1ccco1	inactive	–
CCCn1c(=NC(=O)c2ccco2)c(C(=O)OCC)cc2c(=O)n3ccccc3nc21	inactive	–
O=C1C(Cl)=C(NCC2CCCO2)C(=O)N1Cc1ccccc1 (stereo not drawn)	inactive	–
C(=N\C(/N=C/c1ccco1)c1ccco1)/c1ccco1	inactive	–

Structure (SMILES)	outcome	EC50 [nM]
C=CCSc1nnc2n(-c3ccccc3OC)c(=O)c3c4c(sc3n12)CCC4	inactive	–
COC(=O)C(C)C1Sc2ccccc2NC1=O (stereo not drawn)	inactive	–
CC(=O)C1=C(C)NC(SCC(=O)c2ccc(F)cc2)=C(C#N)C1c1ccco1 (stereo not drawn)	inactive	–
COc1ccc(OC)c(C2=NOC(C(=O)Nc3cccc(C(C)=O)c3)C2)c1 (stereo not drawn)	inactive	–
CCCCN(CC)C(=O)c1ccc(Cl)c(Cl)c1	inactive	–
Cc1sc2nc(CN3CCN(S(=O)(=O)c4cccc5nonc45)CC3)[nH]c(=O)c2c1C	inactive	–
C=CCn1c(=S)[nH]c2nc3c(cc2c1=O)CCCC3	inactive	–
O=C1CSc2ccccc2N1Cc1ccccc1F	inactive	–
COc1ccc(OC)c(C2C=C(c3ccc(C)c(C)c3)Nc3nnnn32)c1 (stereo not drawn)	inactive	–
CCNc1nc(NC(C)(C)C)nc(N(CC)n2cnnc2)n1	inactive	–
COc1ccc(OC)c(C(=O)COC(=O)C2CC3CCCC(C2)C3=O)c1 (stereo not drawn)	inactive	–
CCOC(=O)N1CCC(N2Cc3cccc(C(=O)NC(C)c4ccc5c(c4)OCCO5)c3C2=O)CC1 (stereo not drawn)	inactive	–
O=C(OCC#CCSc1nnc(-c2ccc(Br)cc2)o1)c1ccco1	inactive	–
COc1ccc(N2C(=O)C3CCCN3C2c2ccccc2)cc1Cl (stereo not drawn)	inactive	–
CCN=C1SC(C(N)=O)CC(=O)N1CC (stereo not drawn)	inactive	–
CCc1ccc2oc(=O)cc(CN3CCOCC3)c2c1	inactive	–
Cc1ccc(-c2cc(-c3ccc(C)o3)nc(N)c2C#N)cc1	inactive	–
CCOC(=O)NCCc1ccc(OC)cc1	inactive	–
O=S(=O)(c1ccccc1)c1nc(-c2ccco2)oc1N1CCCCCC1	inactive	–
CCCc1nc2sc3c(SCC(=O)NCc4ccco4)ncnc3c2c2c1CCC2	inactive	–
O=C(OCCCCN1C(=O)c2ccccc2C1=O)c1n[nH]c2ccccc12	inactive	–
CCOc1ccccc1C1CC(c2ccccc2)Nc2nc(N)nn21 (stereo not drawn)	inactive	–
CC(C)OC(=O)CSc1nnc(-c2cnccn2)n1-c1ccc(Cl)cc1	inactive	–
COc1cc2c(cc1OC)C(C(=O)Nc1ccc3c(c1)OCCO3)C1c3ccccc3CCN1C2=O (stereo not drawn)	inactive	–
CC(C)Cn1c(=O)c(C(=O)Nc2cnccn2)c(O)c2ccccc21	inactive	–
Cc1c(C(=O)OCC(C)C)[nH]c2c1C(=O)CC(c1ccco1)C2 (stereo not drawn)	–	1750
